This assay relates to Human immunodeficiency virus 1. The experiment in a line: Antiviral activity against HIV1 3B infected in HeLa cells expressing CD4/CCR5/beta-Gal after 48 hrs by MAGI assay. The assay is classed as functional, organism-based. The following applies: Human immunodeficiency virus 1, 3B.
For `N=C1Sc2cc(Br)ccc2C2=NCC3(CCN(C(=O)OCc4ccc(C(=O)c5ccc(COC(=O)NCCOCCOCCOCCNC(=O)CCCC[C@@H]6SC[C@@H]7NC(=O)N[C@@H]76)cc5)cc4)CC3)CN12`, the concentration giving a half-maximal response (EC50) (in general, the concentration needed to bring the measured effect to its halfway point) came out at 5.11 µM. The result for `N=C1Sc2cc(-c3ccc(C(=O)c4ccc(COC(=O)NCCOCCOCCOCCNC(=O)CCCC[C@@H]5SC[C@@H]6NC(=O)N[C@@H]65)cc4)cc3)ccc2C2=NCCCN12` reads 6.87 µM; that for `C#CCOCc1ccc(C(=O)c2ccc(-c3ccc4c(c3)SC(=N)N3CCCN=C43)cc2)cc1`, 0.64 µM.

The values above are taken from ChEMBL document CHEMBL2346544, “Design and synthesis of biotin- or alkyne-conjugated photoaffinity probes for studying the target molecules of PD 404182” (Bioorg Med Chem, 2013).
